Laboratory results as given in US8394801B2, “Quinoxaline derivatives and their use for treating benign and malignant tumour disorders” (Aeterna Zentaris GmbH, priority 2009, dated 2013).
pEC50: −log10 of the molar value.

Legend:
[1] = system: PC-3; test: Proliferation assay (Alamar Blue / XTT), PC-3; format: cell-based; conditions: Homo sapiens, cell line PC3 (prostate)
[2] = system: U87MG; test: Proliferation assay (Alamar Blue / XTT), U87MG; format: cell-based; conditions: Homo sapiens, U-87 MG; cell line U87MG (glioma)
[3] = system: MDA MB468; test: Proliferation assay (Alamar Blue / XTT), MDA MB468; format: cell-based; conditions: Homo sapiens, MDA-MB-468; cell line MDA-MB468 (breast)
[4] = system: HCT116; test: Proliferation assay (Alamar Blue / XTT), HCT116; format: cell-based; conditions: Homo sapiens; cell line HCT-116 (colon)
[5] = system: A549; test: Proliferation assay (Alamar Blue / XTT), A549; format: cell-based; conditions: Homo sapiens; cell line A549 (lung)

Compound | melting point [°C] | pEC50 [1] | pEC50 [2] | pEC50 [3] | pEC50 [4] | pEC50 [5]
CCNC(=S)Nc1cnc2ccc(-c3cc(Cl)c(O)c(Cl)c3)cc2n1 [Compound 88, 1-[7-(3,5-Dichloro-4-hydroxy-phenyl)-quinoxalin-2-yl]-3-ethyl-thiourea] | 237 to 238 |  |  |  |  | 
Oc1c(Cl)cc(-c2ccc3ncc(NC(=S)NCCCc4ccccc4)nc3c2)cc1Cl [Compound 96, 1-[7-(3,5-Dichloro-4-hydroxy-phenyl)-quinoxalin-2-yl]-3-(3-phenyl-propyl)-thiourea] | 248 to 250 | 5.78 | 5.63 | 5.98 | 5.81 | 5.74
O=C(Nc1cnc2ccc(-c3cc(Cl)c(O)c(Cl)c3)cc2n1)NC1CCCCCCC1 [Compound 79, 1-Cyclooctyl-3-[7-(3,5-dichloro-4-hydroxy-phenyl)-quinoxalin-2-yl]-urea] | 258 to 260 | 6.52 | 5.94 | 6.60 | 6.30 | 5.99
O=C(NCCc1ccccc1)Nc1cnc2ccc(-c3cc(Cl)c(O)c(Cl)c3)cc2n1 [Compound 85, 1-[7-(3,5-Dichloro-4-hydroxy-phenyl)-quinoxalin-2-yl]-3-phenethyl-urea] |  | 5.90 | 6.31 | 5.79 | 5.89 | 5.74
Cc1cc(-c2ccc3ncc(NC(=O)NC(C)(C)CC(C)(C)C)nc3c2)cc(C)c1O [Compound 51, 1-[7-(4-Hydroxy-3,5-dimethylphenyl)quinoxalin-2-yl]-3-(1,1,3,3-tetra-methylbutyl)urea] | > 300 |  |  |  |  | 
Cc1cc(-c2ccc3ncc(NC(=O)NCC(C)(C)C)nc3c2)cc(C)c1O [Compound 67, 1-(2,2-Dimethyl-propyl)-3-[7-(4-hydroxy-3,5-dimethyl-phenyl)-quinoxalin-2-yl]-urea] | 275 to 276 | 6.73 | 6.65 | 6.42 | 6.49 | 6.45
Cc1cc(-c2ccc3ncc(NC(=O)Nc4ccc5ccccc5c4)nc3c2)cc(C)c1O [Compound 50, 1-[7-(4-Hydroxy-3,5-dimethylphenyl)quinoxalin-2-yl]-3-naphthalen-2-ylurea] | > 300 |  |  |  |  | 
Cc1cc(-c2ccc3ncc(NC(=S)NC4CCCC4)nc3c2)cc(C)c1O [Compound 24, 1-Cyclopentyl-3-[7-(4-hydroxy-3,5-dimethylphenyl)quinoxalin-2-yl]-thiourea] | 271 to 272 |  |  |  |  | 
Cc1cc(-c2ccc3ncc(NC(=O)N[C@H](C)C(C)C)nc3c2)cc(C)c1O [Compound 53, 1-((R)-1,2-Dimethylpropyl)-3-[7-(4-hydroxy-3,5-dimethylphenyl)-quinoxalin-2-yl]urea] | 265 |  |  |  |  | 
Oc1c(Cl)cc(-c2ccc3ncc(NC(=S)NCc4ccccc4)nc3c2)cc1Cl [Compound 94, 1-Benzyl-3-[7-(3,5-dichloro-4-hydroxy-phenyl)-quinoxalin-2-yl]-thiourea] | 275 to 277 | 6.09 | 5.68 | 6.77 | 6.23 | 6.05
Cc1cc(-c2ccc3ncc(NC(=O)Nc4ccc(Cl)c(Cl)c4)nc3c2)cc(C)c1O [Compound 47, 1-(3,4-Dichlorophenyl)-3-[7-(4-hydroxy-3,5-dimethylphenyl)quinoxalin-2-yl]urea] | > 300 |  |  |  |  | 
Cc1ccc(NC(=O)Nc2cnc3ccc(-c4cc(C)c(O)c(C)c4)cc3n2)cc1 [Compound 46, 1-[7-(4-Hydroxy-3,5-dimethylphenyl)quinoxalin-2-yl]-3-p-tolylurea] | > 300 |  |  |  |  | 
CCCCCNC(=O)Nc1cnc2ccc(-c3cc(C)c(O)c(C)c3)cc2n1 [Compound 33, 1-[7-(4-Hydroxy-3,5-dimethylphenyl)quinoxalin-2-yl]-3-pentylurea] | 274 to 275 |  |  |  |  | 
Oc1c(Cl)cc(-c2ccc3ncc(NC(=S)NC4CCCCC4)nc3c2)cc1Cl [Compound 21, 1-Cyclohexyl-3-[7-(3,5-dichloro-4-hydroxyphenyl)quinoxalin-2-yl]-thiourea] | 284 |  |  |  |  | 
O=C(NCCCc1ccccc1)Nc1cnc2ccc(-c3cc(Cl)c(O)c(Cl)c3)cc2n1 [Compound 84, 1-[7-(3,5-Dichloro-4-hydroxy-phenyl)-quinoxalin-2-yl]-3-(3-phenyl-propyl)-urea] | 271 to 274 |  |  |  |  | 
CCNC(=O)Nc1cnc2ccc(-c3cc(Cl)c(O)c(Cl)c3)cc2n1 [Compound 74, 1-[7-(3,5-Dichloro-4-hydroxy-phenyl)-quinoxalin-2-yl]-3-ethyl-urea] | 295 to 296 | 5.66 | 5.00 | 5.68 | 5.51 | 5.41
Oc1c(Cl)cc(-c2ccc3ncc(NC(=S)NC4CC4)nc3c2)cc1Cl [Compound 83, 1-Cyclopropyl-3-[7-(3,5-dichloro-4-hydroxy-phenyl)-quinoxalin-2-yl]-thiourea] | 260 to 262 | 6.02 | 5.71 | 5.98 | 5.68 | 5.64
CCCCCCCNC(=O)Nc1cnc2ccc(-c3cc(Cl)c(O)c(Cl)c3)cc2n1 [Compound 75, 1-[7-(3,5-Dichloro-4-hydroxy-phenyl)-quinoxalin-2-yl]-3-heptyl-urea] | 289 to 291 |  |  |  |  | 

Compound | melting point [°C] | pEC50 [1] | pEC50 [2] | pEC50 [3] | pEC50 [4] | pEC50 [5]
CC(C)NC(=S)Nc1cnc2ccc(-c3cc(Cl)c(O)c(Cl)c3)cc2n1 [Compound 91, 1-[7-(3,5-Dichloro-4-hydroxy-phenyl)-quinoxalin-2-yl]-3-isopropyl-thiourea] | 276 to 278 |  |  |  |  | 
Oc1c(Cl)cc(-c2ccc3ncc(NC(=S)NC4CCC4)nc3c2)cc1Cl [Compound 80, 1-Cyclobutyl-3-[7-(3,5-dichloro-4-hydroxy-phenyl)-quinoxalin-2-yl]-thiourea] | 277 to 280 | 5.92 | 5.70 | 6.17 | 5.77 | 5.69
CCCCCCNC(=O)Nc1cnc2ccc(-c3cc(C)c(O)c(C)c3)cc2n1 [Compound 35, 1-Hexyl-3-[7-(4-hydroxy-3,5-dimethylphenyl)quinoxalin-2-yl]urea] | 272 to 273 |  |  |  |  | 
CC(C)NC(=O)Nc1cnc2ccc(-c3cc(Cl)c(O)c(Cl)c3)cc2n1 [Compound 76, 1-[7-(3,5-Dichloro-4-hydroxy-phenyl)-quinoxalin-2-yl]-3-isopropyl-urea] | 298 to 300 |  |  |  |  | 
O=C(Nc1cnc2ccc(-c3cc(Cl)c(O)c(Cl)c3)cc2n1)NC1CCCCCC1 [Compound 78, 1-Cycloheptyl-3-[7-(3,5-dichloro-4-hydroxy-phenyl)-quinoxalin-2-yl]-urea] | 283 to 286 | 6.51 | 5.51 | 6.36 | 6.09 | 5.93
O=C(Nc1ccccc1)Nc1cnc2ccc(-c3cc(Cl)c(O)c(Cl)c3)cc2n1 [Compound 86, 1-[7-(3,5-Dichloro-4-hydroxy-phenyl)-quinoxalin-2-yl]-3-phenyl-urea] | > 300 |  |  |  |  | 
Oc1c(Cl)cc(-c2ccc3ncc(NC(=S)NC4CCCCCC4)nc3c2)cc1Cl [Compound 92, 1-Cycloheptyl-3-[7-(3,5-dichloro-4-hydroxy-phenyl)-quinoxalin-2-yl]-thiourea] | 281 to 283 |  |  |  |  | 
CNC(=O)Nc1cnc2ccc(-c3cc(C)c(O)c(C)c3)cc2n1 [Compound 16, 1-[7-(4-Hydroxy-3,5-dimethylphenyl)quinoxalin-2-yl]-3-methylurea] | 251 |  |  |  |  | 
CC(C)NC(=O)Nc1cnc2ccc(-c3ccc(O)c(Cl)c3)cc2n1 [Compound 95, 1-[7-(3-Chloro-4-hydroxy-phenyl)-quinoxalin-2-yl]-3-isopropyl-urea] | 275 to 277 |  |  |  |  | 
Cc1cc(-c2ccc3ncc(NC(=O)N[C@@H](C)C(C)C)nc3c2)cc(C)c1O [Compound 54, 1-((S)-1,2-Dimethylpropyl)-3-[7-(4-hydroxy-3,5-dimethylphenyl)-quinoxalin-2-yl]urea] | 267 |  |  |  |  | 
CC(C)(C)NC(=O)Nc1cnc2ccc(-c3cc(Cl)c(O)c(Cl)c3)cc2n1 [Compound 77, 1-tert-Butyl-3-[7-(3,5-dichloro-4-hydroxy-phenyl)-quinoxalin-2-yl]-urea] | 292 to 295 |  |  |  |  | 
CCNC(=O)Nc1cnc2ccc(-c3cc(C)c(O)c(C)c3)cc2n1 [Compound 19, 1-Ethyl-3-[7-(4-hydroxy-3,5-dimethylphenyl)quinoxalin-2-yl]urea] | 257 |  |  |  |  | 
O=C(Nc1cnc2ccc(-c3cc(Cl)c(O)c(Cl)c3)cc2n1)NC1CCCC1 [Compound 81, 1-Cyclopentyl-3-[7-(3,5-dichloro-4-hydroxy-phenyl)-quinoxalin-2-yl]-urea] | 295 to 296 |  |  |  |  | 
CCCNC(=S)Nc1cnc2ccc(-c3cc(Cl)c(O)c(Cl)c3)cc2n1 [Compound 89, 1-[7-(3,5-Dichloro-4-hydroxy-phenyl)-quinoxalin-2-yl]-3-propyl-thiourea] | 237 to 239 |  |  |  |  | 
COc1ccc(NC(=O)Nc2cnc3ccc(-c4cc(C)c(O)c(C)c4)cc3n2)cc1 [Compound 48, 1-[7-(4-Hydroxy-3,5-dimethylphenyl)quinoxalin-2-yl]-3-(4-methoxy-phenyl)urea] | > 300 |  |  |  |  | 
CCCCCNC(=O)Nc1cnc2ccc(-c3cc(Cl)c(O)c(Cl)c3)cc2n1 [Compound 71, 1-[7-(3,5-Dichloro-4-hydroxy-phenyl)-quinoxalin-2-yl]-3-pentyl-urea] | 297 to 298 |  |  |  |  | 
Cc1cc(-c2ccc3ncc(NC(=S)NC(C)(C)C)nc3c2)cc(C)c1O [Compound 25, 1-tert-Butyl-3-[7-(4-hydroxy-3,5-dimethylphenyl)quinoxalin-2-yl]thiourea] | 238 to 240 |  |  |  |  | 
Cc1cc(-c2ccc3ncc(NC(=O)Nc4cccnc4)nc3c2)cc(C)c1O [Compound 52, 1-[7-(4-Hydroxy-3,5-dimethylphenyl)quinoxalin-2-yl]-3-pyridin-3-ylurea] | 298 to 300 |  |  |  |  | 
